Results published in ChEMBL document CHEMBL1129843, “Synthesis of a pyrimido[4,5-b]azepine analog of 5,10-dideaza-5,6,7,8-tetrahydrofolic acid (DDATHF)” (Bioorg Med Chem Lett, 1997).

Key:
[1] = target: T1, Folylpolyglutamate synthase, mitochondrial (Homo sapiens) (UniProt Q05932); assay: Ratio of Vmax to Km value and expressed as k'; settings: Sus scrofa
T1 sequence (whole entry): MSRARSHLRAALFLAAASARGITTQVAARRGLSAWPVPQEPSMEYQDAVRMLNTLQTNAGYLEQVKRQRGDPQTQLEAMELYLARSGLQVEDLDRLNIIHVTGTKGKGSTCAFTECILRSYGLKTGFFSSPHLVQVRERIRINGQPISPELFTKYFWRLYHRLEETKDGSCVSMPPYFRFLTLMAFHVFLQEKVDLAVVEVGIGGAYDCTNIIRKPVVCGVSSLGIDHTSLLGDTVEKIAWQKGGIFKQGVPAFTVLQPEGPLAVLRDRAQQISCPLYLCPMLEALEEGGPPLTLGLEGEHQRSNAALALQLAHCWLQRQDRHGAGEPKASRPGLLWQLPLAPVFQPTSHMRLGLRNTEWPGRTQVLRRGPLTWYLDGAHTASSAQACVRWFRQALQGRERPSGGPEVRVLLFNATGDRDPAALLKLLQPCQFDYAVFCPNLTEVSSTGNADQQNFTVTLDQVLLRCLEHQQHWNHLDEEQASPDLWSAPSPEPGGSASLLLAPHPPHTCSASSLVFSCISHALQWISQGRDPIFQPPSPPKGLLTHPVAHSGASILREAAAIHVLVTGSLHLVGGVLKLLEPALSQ

[2] = target: T2, Trifunctional purine biosynthetic protein adenosine-3 (Mus musculus, UniProt Q64737); assay: Tested in vitro for its inhibition of trifunctional glycinamide ribonucleotide formyltransferase (GARFT) isolated from murine L1210 leukemia cells
T2 sequence (Q64737 whole entry): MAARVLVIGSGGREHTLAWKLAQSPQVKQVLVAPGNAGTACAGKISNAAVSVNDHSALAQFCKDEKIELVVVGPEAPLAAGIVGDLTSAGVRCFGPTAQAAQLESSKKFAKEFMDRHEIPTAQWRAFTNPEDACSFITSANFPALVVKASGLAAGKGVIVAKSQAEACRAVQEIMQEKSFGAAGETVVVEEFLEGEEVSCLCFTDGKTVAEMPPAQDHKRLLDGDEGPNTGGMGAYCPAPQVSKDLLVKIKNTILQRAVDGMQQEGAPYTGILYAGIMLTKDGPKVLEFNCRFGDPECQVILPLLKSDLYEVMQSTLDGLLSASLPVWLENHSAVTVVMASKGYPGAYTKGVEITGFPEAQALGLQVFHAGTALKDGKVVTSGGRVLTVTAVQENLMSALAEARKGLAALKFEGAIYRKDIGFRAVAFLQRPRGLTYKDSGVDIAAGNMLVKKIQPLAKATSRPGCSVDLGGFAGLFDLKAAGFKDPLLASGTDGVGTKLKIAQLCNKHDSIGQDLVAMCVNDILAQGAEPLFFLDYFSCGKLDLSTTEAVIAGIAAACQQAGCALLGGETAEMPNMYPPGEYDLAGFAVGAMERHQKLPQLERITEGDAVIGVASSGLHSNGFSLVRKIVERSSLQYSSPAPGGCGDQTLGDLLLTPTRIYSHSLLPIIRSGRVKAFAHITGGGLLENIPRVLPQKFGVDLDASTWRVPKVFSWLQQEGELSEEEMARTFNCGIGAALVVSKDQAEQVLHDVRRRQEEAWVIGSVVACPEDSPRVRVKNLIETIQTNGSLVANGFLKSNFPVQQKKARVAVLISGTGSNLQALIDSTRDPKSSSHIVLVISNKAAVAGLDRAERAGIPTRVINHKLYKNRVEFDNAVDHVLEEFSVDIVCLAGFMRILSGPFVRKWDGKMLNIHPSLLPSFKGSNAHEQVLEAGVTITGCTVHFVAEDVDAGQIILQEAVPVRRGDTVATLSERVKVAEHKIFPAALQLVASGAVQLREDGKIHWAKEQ

CCRF-CEM = assay: Tested in vitro for cellular cytotoxicity against human T-cell derived lymphoblastic leukemia (CCRF-CEM) cells; assay type: functional, cell-based
[3] = substrate: Nc1cc2c(c(O)n1)CC(CCc1ccc(C(=O)N[C@@H](CCC(=O)O)C(=O)O)cc1)CCN2; settings: Sus scrofa
Description: In vitro Folyl-poly-gamma-glutamyl synthetase (FPGS) affinity

Row | Ki [2] [nM] | Molecule | k' [1] | IC50 (CCRF-CEM) [nM] | Km [3] [µM]
1 | 59.7 | Nc1nc2c(c(=O)[nH]1)C[C@@H](CCc1ccc(C(=O)N[C@@H](CCC(=O)O)C(=O)O)cc1)CN2 [LOMETREXOL] | 59 | 15.2 | 
2 | 120 | Nc1nc2c(c(=O)[nH]1)C[C@H](CCc1ccc(C(=O)NC(CCC(=O)O)C(=O)O)cc1)CN2 (some centres undefined) |  | 16 | 
3 |  | Folylpolyglutamate synthase, mitochondrial (Homo sapiens), Q05932 (protein) MSRARSHLRAALFLAAASARGITTQVAARRGLSAWPVPQEPSMEYQDAVRMLNTLQTNAGYLEQVKRQRGDPQTQLEAMELYLARSGLQVEDLDRLNIIHVTGTKGKGSTCAFTECILRSYGLKTGFFSSPHLVQVRERIRINGQPISPELFTKYFWRLYHRLEETKDGSCVSMPPYFRFLTLMAFHVFLQEKVDLAVVEVGIGGAYDCTNIIRKPVVCGVSSLGIDHTSLLGDTVEKIAWQKGGIFKQGVPAFTVLQPEGPLAVLRDRAQQISCPLYLCPMLEALEEGGPPLTLGLEGEHQRSNAALALQLAHCWLQRQDRHGAGEPKASRPGLLWQLPLAPVFQPTSHMRLGLRNTEWPGRTQVLRRGPLTWYLDGAHTASSAQACVRWFRQALQGRERPSGGPEVRVLLFNATGDRDPAALLKLLQPCQFDYAVFCPNLTEVSSTGNADQQNFTVTLDQVLLRCLEHQQHWNHLDEEQASPDLWSAPSPEPGGSASLLLAPHPPHTCSASSLVFSCISHALQWISQGRDPIFQPPSPPKGLLTHPVAHSGASILREAAAIHVLVTGSLHLVGGVLKLLEPALSQ |  |  | 39

Row | Molecule | Ki [2] [nM] | k' [1] | IC50 (CCRF-CEM) [nM] | Km [3] [µM]
4 | Nc1cc2c(c(O)n1)CC(CCc1ccc(C(=O)N[C@@H](CCC(=O)O)C(=O)O)cc1)CCN2 (some centres undefined) | 147 | 20 | 47 | 
